The values below come from ChEMBL document CHEMBL1201862, “PubChem BioAssay data set” (2004).

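Test compounds were applied to cells in 96-well plates for 48 hours at 5 doses. GI50 = concentration required for 50% inhibition of growth.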 Active and inactive are the calls of the source. No stated cut-off is given here; in the data, active = GI50 up to about 1.1 µM and inactive = higher.

Common to all, as to assay: inhibition of tumour cell growth, NCI panel, 48 h
Test [1] has as its system NCI-H460.
For test [2], the system named is HCT-116.
For test [3], the system named is SK-MEL-5.
Test [4] deals with OVCAR-4.
For test [5], the system named is IGROV-1.
The subject of test [6] is SF-539.
Test [7] relates to NCI-H226.
For test [8], the system named is SNB-75.
The test system of test [9] is CCRF-CEM.
For test [10], the system named is U-251.
The subject of test [11] is OVCAR-8.
Test [12] deals with M14.
In test [13] the test system is CAKI-1.
For test [14], the system named is LOX IMVI.
Test [15] concerns SK-MEL-2.
Test [16] relates to RXF 393.
For test [17], the system named is A498.
In test [18] the test system is MOLT-4.
Test [19] relates to T47D.

Regarding `CC(=O)Nc1ccc(C2CC(c3ccc([N+](=O)[O-])cc3)=Nc3ccccc3S2)cc1` (stereo unspecified), the GI50 was 17.3 µM (inactive) in [1]; 9.75 µM (inactive) in [2]; > 10 µM (inactive) in test [3]; 19.7 µM (inactive) in test [4]; 25.8 µM (inactive) in test [5]; 17.7 µM (inactive) in test [6]. Further, the GI50 in [7] was 26.9 µM (inactive); in [8] it was 12.8 µM (inactive); in [9] it was 13.8 µM (inactive); in test [10], 15.2 µM (inactive); in test [11], 16.6 µM (inactive); in test [12], 13.5 µM (inactive). Moreover, the GI50 in [13] is 24 µM (inactive); in test [14], 15.5 µM (inactive); in test [15], 17.9 µM (inactive); in test [16], 19.3 µM (inactive); in [17], 16.5 µM (inactive); in test [18], 11.8 µM (inactive).

Take `Oc1ccc(Cl)cc1CN1CCN(Cc2cc(Cl)ccc2O)C1`: the GI50 is 0.218 µM (active) in [1]; 0.234 µM (active) in test [2]; 1.84 µM (inactive) in test [19]; 0.973 µM (active) in test [3]; 1.3 µM (inactive) in test [4]; 1.89 µM (inactive) in [5]. For the same compound, the GI50 in test [6] is 0.946 µM (active); in [7], 1.39 µM (inactive); in test [8] it was 1.52 µM (inactive); in [9] it was 0.0603 µM (active); in [10], 1.11 µM (active); in test [11], 0.525 µM (active). The GI50 in test [12] is 0.553 µM (active); in test [13] it was 1.88 µM (inactive); in test [14], 0.489 µM (active); in test [15] it was 1.73 µM (inactive); in [16] it was 0.895 µM (active); in test [17] it was 16 µM (inactive). The GI50 in test [18] is 0.174 µM (active).

As for `O=C(CC(C(=O)c1ccc(F)cc1)c1ccsc1)c1cccs1` (stereo unspecified), the GI50 in test [1] is 69.7 µM (inactive); in test [2], 60.5 µM (inactive); in [19], 26.7 µM (inactive); in [3], 62.4 µM (inactive); in test [4], 94.8 µM (inactive); in test [5], > 100 µM (inactive). Further, the GI50 was > 100 µM (inactive) in test [6]; 58.1 µM (inactive) in [7]; 94 µM (inactive) in [8]; 68.9 µM (inactive) in test [9]; > 100 µM (inactive) in test [10]; > 100 µM (inactive) in [11]. Besides, the GI50 in test [12] was > 100 µM (inactive); in test [13] it was > 100 µM (inactive); in [15], > 100 µM (inactive); in test [17], > 100 µM (inactive); in test [18], 29.6 µM (inactive).

Consider `CC(C)(C)C1=C(Br)C(OC(=O)C(F)(F)F)(C(C)(C)C)OP1(=O)c1ccccc1` (stereo unspecified), for which the GI50 is 35.5 µM (inactive) in test [1]; 33 µM (inactive) in [2]; 30 µM (inactive) in test [19]; 65.3 µM (inactive) in test [3]; 49.1 µM (inactive) in [4]; 35.7 µM (inactive) in [5]. Also, the GI50 in test [6] is 37.9 µM (inactive); in test [7] it was 40.5 µM (inactive); in test [8], 33.4 µM (inactive); in [10] it was 35.6 µM (inactive); in test [11] it was 34.7 µM (inactive); in test [12], 36.1 µM (inactive). For the same compound, the GI50 in test [13] is 0.0643 µM (active); in test [14] it was 45.8 µM (inactive); in test [15] it was 29.2 µM (inactive); in [17], 27.8 µM (inactive).

Take `CCN(CC)CCCC(C)NC(=O)c1ccc2c(c1)C(=O)c1ccccc1C2=O` (stereo unspecified): the GI50 in test [1] is 16.4 µM (inactive); in [2], 18.6 µM (inactive); in test [3], 14.5 µM (inactive); in [4], 15.1 µM (inactive); in [5], 24.9 µM (inactive); in test [6] it was 19.2 µM (inactive). The GI50 in test [7] was 22.3 µM (inactive); in test [8], 48.2 µM (inactive); in test [9], 21.7 µM (inactive); in test [10], 20.1 µM (inactive); in test [11], 22.3 µM (inactive); in [12], 18.1 µM (inactive). For the same compound, the GI50 in [13] is 25.9 µM (inactive); in test [14], 15.9 µM (inactive); in test [15], 19.5 µM (inactive); in [16], 19.7 µM (inactive); in test [17], 20.6 µM (inactive); in test [18], 16.6 µM (inactive).

Regarding `O=C(O)C(=O)/C=C\c1ccc(Cl)cc1`, the GI50 in test [1], in test [2], in test [3], in test [4], in [5] and in [6] was > 100 µM (inactive) in each case. Further, the GI50 in [7] was > 100 µM (inactive); in test [8], > 100 µM (inactive); in test [9] it was > 100 µM (inactive); in test [10] it was 66.4 µM (inactive); in test [11], > 100 µM (inactive); in test [12], > 100 µM (inactive). Further, the GI50 in test [13], in test [14], in test [15], in test [16], in test [17] and in test [18] was > 100 µM (inactive) in each case.

With `O=c1c2cc(-c3ccccc3)sc2nc2sc(-c3ccccc3)nn12`, the GI50 in test [1], in test [2], in [3], in test [4], in test [5] and in test [6] was > 100 µM (inactive) in each case. The GI50 in test [7], in test [8], in [9], in test [10], in test [11] and in test [12] was > 100 µM (inactive) each time. The GI50 in test [13], in test [14], in [15], in test [16], in test [17] and in test [18] was > 100 µM (inactive) in each case.

For `Cc1[nH]c2ccccc2c1C1Cc2ccccc2N1C(=O)/C=C/C(=O)O` (stereo unspecified), the GI50 in test [1] was 20 µM (inactive); in test [2], > 100 µM (inactive); in test [3] it was > 100 µM (inactive); in test [4] it was > 100 µM (inactive); in [5] it was > 100 µM (inactive); in [6], > 100 µM (inactive). The GI50 in [7], in test [8], in test [9], in test [10], in test [11] and in test [12] was > 100 µM (inactive) in each case. Moreover, the GI50 in [13], in test [14], in test [15], in [16], in [17] and in [18] was > 100 µM (inactive) in each case.

For `CN(Cc1cnc2nc(N)nc(N)c2n1)c1ccc(C(=O)NC(CCC(=O)NC(P(=O)(O)O)P(=O)(O)O)C(=O)O)cc1` (stereo unspecified), the GI50 in test [1] was 9.62 µM (inactive); in test [2], 4.49 µM (inactive); in [19], 26.3 µM (inactive); in [3] it was 45.5 µM (inactive); in test [4] it was > 100 µM (inactive); in test [5], 36.7 µM (inactive). Besides, the GI50 in test [6] is 32.6 µM (inactive); in [7], > 100 µM (inactive); in [8], > 100 µM (inactive); in test [9], 41.1 µM (inactive); in test [10], 6.43 µM (inactive); in test [11], 4.33 µM (inactive). Also, the GI50 in test [12] was 8.34 µM (inactive); in test [13], 12.4 µM (inactive); in test [14], 8.32 µM (inactive); in test [15], 6.07 µM (inactive); in test [16] it was 4.79 µM (inactive); in test [18], 52.8 µM (inactive).

As to `COc1cc(/C=N/N=C(\N)NO)c([N+](=O)[O-])cc1OC`, the GI50 is 12.6 µM (inactive) in [1]; 28.6 µM (inactive) in test [2]; 18 µM (inactive) in [3]; 15.2 µM (inactive) in test [4]; 53.2 µM (inactive) in test [5]; 41 µM (inactive) in [6]. For the same compound, the GI50 was 14.7 µM (inactive) in test [7]; 27.5 µM (inactive) in [8]; 41.6 µM (inactive) in test [9]; 28.3 µM (inactive) in test [10]; 31.7 µM (inactive) in test [11]; 41.1 µM (inactive) in test [12]. For the same compound, the GI50 in test [13] is 20.4 µM (inactive); in test [14], 24.2 µM (inactive); in test [15], 26.5 µM (inactive); in test [16] it was 33.7 µM (inactive); in [17] it was 37.7 µM (inactive); in [18], 27.1 µM (inactive).

On to `[N-]=[N+]=C1CNC(=O)NC1=O`, for which the GI50 in test [1], in test [2], in test [19], in [3], in test [4] and in test [5] was > 100 µM (inactive) throughout. Besides, the GI50 was > 100 µM (inactive) in [6]; > 100 µM (inactive) in test [7]; 13.5 µM (inactive) in [8]; 24.3 µM (inactive) in test [9]; > 100 µM (inactive) in [10]; > 100 µM (inactive) in test [11]. In addition, the GI50 in [12] was 58.6 µM (inactive); in [13], > 100 µM (inactive); in test [14] it was 60.1 µM (inactive); in [15], > 100 µM (inactive); in test [16] it was > 100 µM (inactive); in test [18] it was 42.5 µM (inactive).
